# Data from PubChem BioAssay (NCI).
# “And” between values parts separate entries of the source, which are not always exact repeats. Equal values may be shown once.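 Method: 48-hour compound exposure of cells in 96-well plates, five concentrations, linear interpolation of endpoints. The concentration for 50% growth inhibition is given as GI50. TGI: concentration producing complete growth inhibition.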
# Legend:
# Assay in all cases: inhibition of tumour cell growth, NCI panel, 48 h
# NCI-H522 lung = tested on: NCI-H522 lung
# DU-145 prostate = tested on: DU-145 prostate
# RXF 393 renal = tested on: RXF 393 renal
# SNB-75 CNS = tested on: SNB-75 CNS
# OVCAR-8 ovarian = tested on: OVCAR-8 ovarian
# SN12C renal = tested on: SN12C renal
# MOLT-4 leukemia = tested on: MOLT-4 leukemia
# M14 melanoma = tested on: M14 melanoma
# SNB-19 CNS = tested on: SNB-19 CNS
# SF-295 CNS = tested on: SF-295 CNS
SMILES,GI50 (NCI-H522 lung),TGI (NCI-H522 lung),GI50 (DU-145 prostate),TGI (DU-145 prostate),GI50 (RXF 393 renal),TGI (RXF 393 renal),GI50 (SNB-75 CNS),TGI (SNB-75 CNS),GI50 (OVCAR-8 ovarian),TGI (OVCAR-8 ovarian),GI50 (SN12C renal),TGI (SN12C renal),TGI (MOLT-4 leukemia),GI50 (M14 melanoma),TGI (M14 melanoma),GI50 (SNB-19 CNS),TGI (SNB-19 CNS),GI50 (SF-295 CNS),TGI (SF-295 CNS),GI50 (MOLT-4 leukemia)
COc1cccc2c1C(=O)c1c(O)c3c(c(O)c1C2=O)CC(O)(C(C)=O)CC3OC1CC(N)C(O)C(C)O1 (stereo not drawn),0.0317 mg/L,0.287 mg/L,0.0208 mg/L,1.65 mg/L,0.263 mg/L,1.48 mg/L,0.0256 mg/L,0.138 mg/L,0.0205 mg/L,0.393 mg/L,0.0177 mg/L,3.98 mg/L,0.019 mg/L,0.0403 mg/L,0.705 mg/L,0.0198 mg/L,2.11 mg/L,0.0286 mg/L,0.168 mg/L,
Cc1nc2sccn2c1/C=C1/C(=O)Nc2ccccc21,1.85 µM,22 µM,24.4 µM,> 100 µM,19.7 µM,> 80.9 µM,17.7 µM,> 74.2 µM,12.7 µM,> 66.9 µM,5.69 µM,> 100 µM,> 31.6 µM,3.71 µM,> 100 µM,> 44 µM,> 100 µM,3.01 µM,> 26.5 µM,4.83 µM
CC(C)=CCN=C(N)N,,> 100 µM,,> 100 µM,,> 100 µM,,,,> 100 µM,,> 100 µM,> 100 µM,,,,> 100 µM,,> 100 µM,
COc1ccc(-c2[nH]ncc2-c2cc3c(c(OC)c2)OCC(=O)N3)cc1,0.247 µM,6.33 µM,1.18 µM,> 100 µM,0.392 µM,2.55 µM,0.196 µM,0.797 µM,1.17 µM,> 50.1 µM,0.63 µM,> 100 µM,> 34.6 µM,0.384 µM,> 89.2 µM,0.619 µM,> 100 µM,0.398 µM,15.2 µM,0.528 µM
O=C(Nc1ccc(Cl)cc1Cl)c1ccc(NC2=C(Cl)C(=O)N(Cc3ccccc3)C2=O)cc1,31.6 µM,> 100 µM,18.7 µM,39.4 µM,17.6 µM,38.8 µM,,,12.8 µM,25.4 µM,20.3 µM,42.8 µM,11.3 µM,64.6 µM,> 100 µM,17.9 µM,31.9 µM,19.5 µM,38.1 µM,3.57 µM
COc1cccc([C@H]2CC(=O)c3cc4c(cc3N2)OCO4)c1,,0.698 µM,0.067 µM,13.8 µM,,0.713 µM,,> 100 µM,,,0.161 µM,> 100 µM,0.0821 µM,0.0864 µM,,,1.81 µM,0.0958 µM,> 100 µM,0.0316 µM
CC(C)(C)OC(=O)NCCNC1=CC(=O)c2nc3ccccc3c3ccnc1c23,18.3 µM,44.8 µM,22.7 µM,80.9 µM,,,17.8 µM,42.6 µM,16.6 µM,> 100 µM,17.7 µM,55.6 µM,,18.5 µM,61.1 µM,22.7 µM,83.7 µM,18.2 µM,40 µM,
COc1cc(CCc2cccnc2)cc(OC)c1OC,,> 100 µM,,,,> 100 µM,,> 100 µM,,> 100 µM,,> 100 µM,> 100 µM,,> 100 µM,,> 100 µM,,> 100 µM,
C[n+]1c(/C=C\C=C\N2CCCCC2)sc2ccccc21,,,0.598 µM,17.1 µM,3.48 µM,17.6 µM,3.93 µM,17 µM,0.384 µM,5.01 µM,0.716 µM,21.2 µM,9.42 µM,2.82 µM,> 35.2 µM,0.538 µM,17.2 µM,0.385 µM,2.36 µM,0.401 µM
COc1ccc(/C=C2\CN(C)Cc3c2nc(N)nc3-c2ccc(OC)cc2)cc1,,> 100 µM,,,,> 100 µM,,> 100 µM,,> 100 µM,,> 100 µM,> 100 µM,,> 100 µM,,> 100 µM,,> 100 µM,
CN1CCc2cc3c(cc2C1O)OCO3 (stereo not drawn),,,16.7 µM and > 100 µM,30.8 µM and > 100 µM,17.9 µM and > 100 µM,35.2 µM and > 100 µM,,17.9 µM and > 100 µM,21.6 µM and > 100 µM,51.6 µM and > 100 µM,20.4 µM and > 100 µM,41.4 µM and > 100 µM,81.6 µM and > 100 µM,16.7 µM and > 100 µM,37.8 µM and > 100 µM,34.6 µM and > 100 µM,> 100 µM,26.7 µM and > 100 µM,> 100 µM,23.4 µM and > 100 µM
NS(=O)(=O)c1ccc(NC(=O)c2ccc(NC3=C(Cl)C(=O)N(Cc4ccccc4)C3=O)cc2)cc1,1.91 µM,4.78 µM,17 µM,30.6 µM,,,,,10.2 µM,> 100 µM,,,,12 µM,34.6 µM,> 100 µM,> 100 µM,3.03 µM,17.8 µM,
CN1C(=O)c2c(ccc3c2OCO3)C2C(O)Cc3cc4c(cc3C21)OCO4 (stereo not drawn),,9.28 µM,,43.1 µM,,,,5.13 µM,,22.9 µM,,> 100 µM,20 µM,,> 100 µM,,> 100 µM,,4.63 µM,
CCC[CH2][Sn]([CH2]CCC)([O]C(=O)c1c(F)cccc1F)[O]C(=O)c1c(F)cccc1F,0.0905 µM,0.213 µM,,,0.242 µM,0.844 µM,0.509 µM,1.82 µM,1.18 µM,2.41 µM,0.777 µM,2.03 µM,0.818 µM,1.08 µM,2.26 µM,1.29 µM,2.56 µM,1.56 µM,2.9 µM,0.239 µM
c1ccc(SC2(Sc3ccccc3)CCCC2)cc1,,> 100 µM,,,,> 100 µM,,> 100 µM,,> 100 µM,,> 100 µM,> 100 µM,,> 100 µM,,> 100 µM,,> 100 µM,
O=P([O-])(O)OP(=O)([O-])O.[NH-][C@H]1CCCC[C@@H]1[NH-].[OH-].[OH-].[Pt+4],,,33.3 µM,> 100 µM,17.6 µM,36.1 µM,20.4 µM,41 µM,22.7 µM,63.6 µM,29.2 µM,87.9 µM,> 100 µM,40.3 µM,> 100 µM,21.7 µM,49.7 µM,19.8 µM,44.1 µM,> 100 µM
